# Tested on: HER2+ cell lines
# Assay: In vitro cell growth assays: drug combination effects (CellTiter-Glo cell viability)
# Type: cell-based
# Procedure: Cells (BT474-M3, NCI-N87, NCI-N87-PIK3CA(wt), NCI-N87-PIK3CA(H1047R), NCI-N87-PIK3CA(E454K), COLO-678, KYSE-410, ZR75-1, MDA-MB-361 or MDA-MB-175-VII) are seeded at 700 cells per 384-well plate in 10% FBS cell growth medium and treated with the five drugs, separately or in combination, at […], with and without 5 nM HRG-β1 pre-stimulation (for four hours). Cell viability was determined 72 hours later with CellTiter-Glo® luminescent cell viability assay (Promega).
# This panel included cells harboring PI3KCA-activating mutations (both natural and engineered), PTEN deletions, and KRAS-activating mutations, as well as PI3K and MAPK-wild type cells. To clarify and summarize the drug-response relationships, multivariate regression models were parameterized for each cell line, simulating % cell growth inhibition as linear combinations of the five input drug concentrations. Regression coefficients for each drug were grouped by mutational background and the presence or absence of heregulin stimulation, and average values computed (FIG. 4B).
Compound,"sensitivity of PI3K-mutant cells to drug-containing regimens (PI3K-mutant cells (MDA-MB-361, ZR-75-1, and NCI-N87-PIK3CA))","effect of HRG on sensitivity of cells to the drug (cell growth inhibition) (presence of 5 nM exogenous HRG, regardless of genetic background)",sensitivity of wild-type cells to drug-containing regimens (wild-type cells)
NC1(c2ccc(-c3nc4ccn5c(=O)[nH]nc5c4cc3-c3ccccc3)cc2)CCC1 [MK2206],most sensitive,–,–
CS(=O)(=O)CCNCc1ccc(-c2ccc3ncnc(Nc4ccc(OCc5cccc(F)c5)c(Cl)c4)c3c2)o1 [lapatinib],–,desensitizes,most sensitive
